This passage reports pKa results from ChEMBL document CHEMBL1125655 (J Med Chem, 1991).

The nature of this data set: pKa value of the compound. It is filed as physicochemical.

Consider `CN1CC[C@]23c4c5ccc(O)c4O[C@H]2[C@@H](O[C@@H]2O[C@H](C(=O)O)[C@@H](O)[C@H](O)[C@H]2O)C=C[C@H]3[C@H]1C5` (stereo in doubt; form 1) [MORPHINE GLUCURONIDE], for which the pKa (commonly the negative logarithm of the acid dissociation constant) was 3.23.
